The values that follow come from patent US9932350B2, “Inhibitors of IRAK4 activity” (MERCK SHARP & DOHME CORP., priority 2014, dated 2018).

GST tagged IRAK4, sequence (Q9NWZ3 whole entry): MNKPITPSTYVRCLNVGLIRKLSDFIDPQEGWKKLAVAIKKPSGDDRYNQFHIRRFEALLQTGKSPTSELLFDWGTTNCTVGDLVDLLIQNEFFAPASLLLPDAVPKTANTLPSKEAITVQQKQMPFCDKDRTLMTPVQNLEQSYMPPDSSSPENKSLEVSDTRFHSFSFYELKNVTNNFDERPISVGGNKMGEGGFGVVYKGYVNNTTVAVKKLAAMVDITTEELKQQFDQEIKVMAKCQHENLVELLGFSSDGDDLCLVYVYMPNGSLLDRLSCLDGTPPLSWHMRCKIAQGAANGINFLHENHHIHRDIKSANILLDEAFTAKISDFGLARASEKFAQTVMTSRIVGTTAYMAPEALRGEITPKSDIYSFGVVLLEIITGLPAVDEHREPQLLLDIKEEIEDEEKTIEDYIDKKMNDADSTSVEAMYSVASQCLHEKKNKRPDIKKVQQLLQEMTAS

In this assay the target is GST tagged IRAK4 (Homo sapiens (Human), UniProt Q9NWZ3). Briefly: IRAK4 Kinase Assay (IMAP fluorescence polarization). The class given is biochemical. The conditions noted are these: 0.5 nM GST tagged IRAK4, 100 μM ATP, 30 minutes at 25° C. A digest of the protocol:
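GST-tagged IRAK4 (0.5 nM) phosphorylates 100 nM fluorescent peptide with 100 μM ATP in 10 mM Tris pH 7.2, 1 mM MgCl2, 1 mM DTT, 0.01% Tween 20 for 30 min at 25 °C. Phosphorylation read as IMAP nanoparticle-binding fluorescence polarization after stop reagent.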
Background: Fluorescence polarisation rises when a labelled molecule tumbles more slowly, as on binding a larger partner.
`CC(C)(CF)C(=O)N1CCN([C@H]2CC[C@H](Nc3ncnc4ccc(C#N)cc34)CC2)CC1` [Example 6-4, 4-({trans-4-[4-(3-fluoro-2,2-dimethylpropanoyl)piperazin-1-yl]cyclohexyl}amino) quinazoline-6-carbonitrile]: the IC50 is 9 nM.

Consider `CC(C)(F)C(=O)N1CCN([C@H]2CC[C@H](Nc3ncnc4ccc(C#N)cc34)CC2)CC1` [Example 6-5, 4-({trans-4-[4-(2-fluoro-2-methylpropanoyl)piperazin-1-yl]cyclohexyl}amino) quinazoline-6-carbonitrile], for which inhibition was half-maximal at 12 nM (IC50).

Compound `CC(F)(F)C(=O)N1CCN([C@H]2CC[C@H](Nc3ncnc4ccc(C#N)cc34)CC2)CC1` [Example 6-6, 4-({trans-4-[4-(2,2-difluoropropanoyl)piperazin-1-yl]cyclohexyl}amino) quinazoline-6-carbonitrile] showed an IC50 of 16 nM.

The compound `CC(F)C(=O)N1CCN([C@H]2CC[C@H](Nc3ncnc4ccc(C#N)cc34)CC2)CC1` (stereo partly drawn) [Example 6-7, 4-({trans-4-[4-(2-fluoropropanoyl)piperazin-1-yl]cyclohexyl}amino) quinazoline-6-carbonitrile] had a 50% inhibitory concentration (IC50) of 14 nM.

The compound `CC1(C(=O)N2CCN([C@H]3CC[C@H](Nc4ncnc5ccc(C#N)cc45)CC3)CC2)CC1` [Example 6-8, 4-[(trans-4-{4-[(1-methylcyclopropyl)carbonyl]piperazin-1-yl}cyclohexyl)amino] quinazoline-6-carbonitrile] had a half-maximal inhibitory concentration (IC50) of 15 nM.

In the case of `CC1(C(=O)N2CCN([C@H]3CC[C@H](Nc4ncnc5ccc(C#N)cc45)CC3)CC2)COC1` [Example 6-9, 4-[(trans-4-{4-[(3-methyloxetan-3-yl)carbonyl]piperazin-1-yl}cyclohexyl)amino] quinazoline-6-carbonitrile], 14 nM corresponded to half-maximal inhibition (IC50).

Take `COCC(=O)N1CCN([C@H]2CC[C@H](Nc3ncnc4ccc(C#N)cc34)CC2)CC1` [Example 6-10, 4-({trans-4-[4-(methoxyacetyl)piperazin-1-yl]cyclohexyl}amino) quinazoline-6-carbonitrile]: the IC50 is 16 nM.

In the case of `N#Cc1ccc2ncnc(N[C@H]3CC[C@H](N4CCN(C(=O)[C@@H]5CCCO5)CC4)CC3)c2c1` [Example 6-11, 4-[(trans-4-{4-[(2S)-tetrahydrofuran-2-ylcarbonyl]piperazin-1-yl}cyclohexyl)amino] quinazoline-6-carbonitrile], the midpoint of inhibition, the IC50, lay at 11 nM.

Take `N#Cc1ccc2ncnc(N[C@H]3CC[C@H](N4CCN(C(=O)C(F)F)CC4)CC3)c2c1` [Example 6-12, 4-({trans-4-[4-(difluoroacetyl)piperazin-1-yl]cyclohexyl}amino) quinazoline-6-carbonitrile]: inhibition was half-maximal at 27 nM (IC50).

`N#Cc1ccc2ncnc(N[C@H]3CC[C@H](N4CCN(C(=O)C5CC(F)C5)CC4)CC3)c2c1` (stereo partly drawn) [Example 6-13, 4-[(trans-4-{4-[(3-fluorocyclobutyl)carbonyl]piperazin-1-yl}cyclohexyl)amino] quinazoline-6-carbonitrile] gave a half-maximal inhibitory concentration (IC50) of 10 nM.

Take `N#Cc1ccc2ncnc(N[C@H]3CC[C@H](N4CCN(C(=O)C5CC5(F)F)CC4)CC3)c2c1` (stereo partly drawn) [Example 6-14, 4-[(trans-4-{4-[(2,2-difluorocyclopropyl)carbonyl]piperazin-1-yl}cyclohexyl)amino] quinazoline-6-carbonitrile]: it took 13 nM to reach half-maximal inhibition (IC50).

Take `N#Cc1ccc2ncnc(N[C@H]3CC[C@H](N4CCN(C(=O)C5CCC5)CC4)CC3)c2c1` [Example 6-15, 4-({trans-4-[4-(cyclobutylcarbonyl)piperazin-1-yl]cyclohexyl}amino) quinazoline-6-carbonitrile]: the concentration for half-maximal inhibition (IC50) was 10 nM.

On to `N#Cc1ccc2ncnc(N[C@H]3CC[C@H](N4CCN(C(=O)C5CCCC5)CC4)CC3)c2c1` [Example 6-16, 4-({trans-4-[4-(cyclopentylcarbonyl)piperazin-1-yl]cyclohexyl}amino) quinazoline-6-carbonitrile], for which half-maximal inhibition (IC50) required 10 nM.

`N#Cc1ccc2ncnc(N[C@H]3CC[C@H](N4CCN(C(=O)CC5CC5)CC4)CC3)c2c1` [Example 6-17, 4-({trans-4-[4-(cyclopropylacetyl)piperazin-1-yl]cyclohexyl}amino) quinazoline-6-carbonitrile] displayed a half-inhibitory concentration (IC50) of 9 nM.

Compound `N#Cc1ccc2ncnc(N[C@H]3CC[C@H](N4CCN(C(=O)CC5COC5)CC4)CC3)c2c1` [Example 6-18, 4-({trans-4-[4-(oxetan-3-ylacetyl)piperazin-1-yl]cyclohexyl}amino) quinazoline-6-carbonitrile] yielded an IC50 of 10 nM.

The compound `N#Cc1ccc2ncnc(N[C@H]3CC[C@H](N4CCN(C(=O)CF)CC4)CC3)c2c1` [Example 6-19, 4-({trans-4-[4-(fluoroacetyl)piperazin-1-yl]cyclohexyl}amino) quinazoline-6-carbonitrile] registered an IC50 of 23 nM.

In the case of `N#Cc1ccc2ncnc(N[C@H]3CC[C@H](N4CCN(C(=O)C(O)C5CC5)CC4)CC3)c2c1` (stereo partly drawn) [Example 6-20, 4-[(trans-4-{4-[cyclopropyl(hydroxy)acetyl]piperazin-1-yl}cyclohexyl)amino] quinazoline-6-carbonitrile], the half-maximal inhibitory concentration (IC50) worked out at 8 nM.

`N#Cc1ccc2ncnc(N[C@H]3CC[C@H](N4CCN(C(=O)C5CC(O)C5)CC4)CC3)c2c1` (stereo partly drawn) [Example 6-21, 4-[(trans-4-{4-[(3-hydroxycyclobutyl)carbonyl]piperazin-1-yl}cyclohexyl)amino] quinazoline-6-carbonitrile]: the midpoint of inhibition, the IC50, lay at 10 nM.

As for `N#Cc1ccc2ncnc(N[C@H]3CC[C@H](N4CCN(C(=O)CCO)CC4)CC3)c2c1` [Example 6-22, 4-({trans-4-[4-(3-hydroxypropanoyl)piperazin-1-yl]cyclohexyl}amino) quinazoline-6-carbonitrile], the IC50 turned out to be 9 nM.

Consider `N#Cc1ccc2ncnc(N[C@H]3CC[C@H](N4CCN(C(=O)[C@H]5CCCO5)CC4)CC3)c2c1` [Example 6-23, 4-[(trans-4-{4-[(2R)-tetrahydrofuran-2-ylcarbonyl]piperazin-1-yl}cyclohexyl)amino] quinazoline-6-carbonitrile], for which the 50% inhibitory concentration (IC50) worked out at 17 nM.

Take `C[C@]1(Nc2ncnc3ccc(C#N)cc23)CC[C@H](N2CCOCC2)CC1` [Example 7-1, 4-{[Trans-1-methyl-4-(morpholin-4-yl)cyclohexyl]amino}quinazoline-6-carbonitrile]: the IC50 worked out at 98 nM.

`C[C@]1(Nc2ncnc3ccc(C#N)cc23)CC[C@H](N2CCC(F)CC2)CC1` [Example 7-2, 4-{[trans-4-(4-fluoropiperidin-1-yl)-1-methylcyclohexyl]amino} quinazoline-6-carbonitrile] registered an IC50 of 74 nM.

With `C[C@]1(Nc2ncnc3ccc(C#N)cc23)CC[C@H](N2CCC(O)C2)CC1` (stereo partly drawn) [Example 7-3, 4-{[trans-4-(3-hydroxypyrrolidin-1-yl)-1-methylcyclohexyl]amino} quinazoline-6-carbonitrile], the half-inhibitory concentration (IC50) was 43 nM.

The compound `N#Cc1ccc2ncnc(N[C@H]3CC[C@H](N4CCC(F)CC4)[C@@H]4C[C@@H]43)c2c1` [Example 7-4, 4-{[(1S,2S,5S,6R)-5-(4-fluoropiperidin-1-yl)bicyclo[4.1.0]hept-2-yl]amino}quinazoline-6-carbonitrile] gave an IC50 of 7 nM.

By IC50 is commonly meant the concentration that gives 50% inhibition. Read a low IC50 as greater potency in that assay.
